According to the NIST ThermoML archive (doi:10.1021/je0496950):
Numbers after ± are expanded uncertainties.

Experiment: mn = molality of the nth substance listed, in mol/kg
Conditions: 101 kPa, Liquid; for speed of sound: Pulse-echo method

[Cu+2].[O-][Cl+3]([O-])([O-])[O-].[O-][Cl+3]([O-])([O-])[O-] [copper perchlorate] + CC#N
Conditions	mass density, 288.13 K [kg/m3]	mass density, 293.15 K [kg/m3]	mass density, 298.15 K [kg/m3]	mass density, 303.15 K [kg/m3]	mass density, 308.15 K [kg/m3]	mass density, 313.15 K [kg/m3]	mass density, 323.15 K [kg/m3]	speed of sound, 298.15 K [m/s]
m1 = 0.0572	798.765 ± 0.72	793.409 ± 0.73	788.03 ± 0.74	782.624 ± 0.75	777.19 ± 0.76	771.728 ± 0.76	760.698 ± 0.78	–
m1 = 0.05724	–	–	–	–	–	–	–	1281.6 ± 1.4
m1 = 0.1013	807.682 ± 0.71	802.334 ± 0.72	796.961 ± 0.73	791.568 ± 0.74	786.147 ± 0.74	780.696 ± 0.75	769.697 ± 0.77	1284.3 ± 1.4
m1 = 0.1335	814.263 ± 0.71	808.919 ± 0.71	803.556 ± 0.72	798.17 ± 0.73	792.754 ± 0.73	787.314 ± 0.74	776.342 ± 0.76	1286.2 ± 1.4
m1 = 0.1645	820.66 ± 0.7	815.323 ± 0.71	809.967 ± 0.71	804.588 ± 0.72	799.184 ± 0.73	793.753 ± 0.73	782.802 ± 0.75	1288.2 ± 1.4
m1 = 0.1975	827.568 ± 0.69	822.238 ± 0.7	816.887 ± 0.71	811.516 ± 0.71	806.117 ± 0.72	800.692 ± 0.73	789.754 ± 0.74	1290 ± 1.4
m1 = 0.2264	833.698 ± 0.69	828.373 ± 0.69	823.028 ± 0.7	817.66 ± 0.71	812.272 ± 0.71	806.857 ± 0.72	795.939 ± 0.73	1291.8 ± 1.4
m1 = 0.258	840.493 ± 0.68	835.168 ± 0.69	829.828 ± 0.69	824.467 ± 0.7	819.083 ± 0.7	813.673 ± 0.71	802.774 ± 0.72	1293.7 ± 1.4
m1 = 0.285	846.334 ± 0.67	841.014 ± 0.68	835.678 ± 0.69	830.323 ± 0.69	824.946 ± 0.7	819.544 ± 0.7	808.66 ± 0.72	1295.4 ± 1.4
m1 = 0.3172	853.453 ± 0.67	848.137 ± 0.67	842.806 ± 0.68	837.456 ± 0.69	832.084 ± 0.69	826.687 ± 0.7	815.817 ± 0.71	1297.3 ± 1.4
